Here are results for five molecules from US20090053338A1, “Method for the preparation of phytoprogestogenic extracts from rhizoma ligusticum chuanxiong and uses thereof” (priority 2003, published 2009).

The target in series [1] is T1, human progesterone receptor (PR-B) (Homo sapiens, UniProt P06401).
T1 construct: DNA encoding the full length human progesterone receptor (PR-B); expressed in transfected cells; host or cells: HeLa cells
T1 sequence (P06401 1-933): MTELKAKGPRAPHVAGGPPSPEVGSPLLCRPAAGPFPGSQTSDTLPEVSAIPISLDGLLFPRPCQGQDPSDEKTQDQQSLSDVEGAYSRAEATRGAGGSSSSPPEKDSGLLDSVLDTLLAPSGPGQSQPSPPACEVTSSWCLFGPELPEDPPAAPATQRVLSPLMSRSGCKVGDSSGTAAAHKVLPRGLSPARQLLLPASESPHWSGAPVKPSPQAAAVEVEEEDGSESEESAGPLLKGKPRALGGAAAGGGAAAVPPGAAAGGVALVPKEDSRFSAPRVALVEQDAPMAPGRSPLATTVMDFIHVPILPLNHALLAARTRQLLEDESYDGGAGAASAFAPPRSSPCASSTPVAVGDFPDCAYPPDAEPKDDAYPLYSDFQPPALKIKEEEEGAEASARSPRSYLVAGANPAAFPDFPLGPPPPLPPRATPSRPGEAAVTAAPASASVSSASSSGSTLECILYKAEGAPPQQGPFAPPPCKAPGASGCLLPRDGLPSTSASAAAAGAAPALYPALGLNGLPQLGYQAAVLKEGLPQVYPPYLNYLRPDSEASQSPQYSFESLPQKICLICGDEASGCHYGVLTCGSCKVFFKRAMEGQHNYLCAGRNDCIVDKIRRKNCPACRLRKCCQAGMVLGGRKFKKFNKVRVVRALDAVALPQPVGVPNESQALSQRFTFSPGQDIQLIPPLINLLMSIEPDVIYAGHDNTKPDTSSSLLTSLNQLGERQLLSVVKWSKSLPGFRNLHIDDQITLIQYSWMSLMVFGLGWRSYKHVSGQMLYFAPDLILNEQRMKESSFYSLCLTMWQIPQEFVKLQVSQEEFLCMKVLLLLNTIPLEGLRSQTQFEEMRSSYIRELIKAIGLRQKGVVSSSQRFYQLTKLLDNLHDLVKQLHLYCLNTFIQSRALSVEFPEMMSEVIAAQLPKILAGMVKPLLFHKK
The series can be described thus: cell-based progesterone reporter gene assay (PR-B + PRE2-TATA-LUC luciferase) in HeLa cells. Particulars: peak activity at 10 μM. (In general: Reporter assays use an easily measured gene product as a stand-in for the process of interest.)
From the text: In the progestogen receptor assay of the invention, HeLa cells grown in 24-well microtiter plates were transiently co-transfected with two plasmids using lipofectamine. The first plasmid consisted of DNA encoding the full length human progesterone receptor (PR-B), and the second a progesterone reporter gene (PRE2-TATA-LUC) comprising a luciferase reporter gene driven by two copies of the progesterone response element from the aminotransferase gene. […] Replicate wells were exposed to vehicle only (ethanol) and used as negative controls. After the period of incubation, cells were rinsed with PBS buffer, lysis buffer (Promega Corp) was added, and cell lysates collected for measurement of luciferase activity. Progestogenic activity of the ligands was expressed as fold-increase in luciferase activity compared with control cells exposed to vehicle only. All data points were in triplicate. […] To begin the search for phyto-progestogens in Traditional Chinese herbal medicines, The Pharmacopoeia of the People's Republic of China (1997) was consulted and 13 herbs reported to have “uterotonic activity” were selected for screening. […] The herbal residues were re-extracted a second time with the same solvent for 2-3 hours. […] Dried extracts were weighed and re-suspended in 100% ethanol or methanol to a concentration 50 mg/ml.

Series [2] relates to male Sprague-Dawley rats. Here is the method:
Sprague-Dawley rats were fasted overnight. Two mls of L.C. (2 g), MPA (10 mg) and vehicle (60% Ethanol) were orally fed to male rats using gavage tubes. Serum samples were collected from the tail vein at indicated time points, before and after L.C. administration. Bioactive progestogens were extracted from serum and tested for progestogenic activity using our receptor-based bioassay. Each data point is the Mean±SEM of samples obtained from 6 different rats. Bars indicate progestogenic activity of original MPA and L.C. extract in-vitro. Progestogenic activity is expressed as fold increase compared to cells exposed to vehicle only.
To determine the pharmacokinetics and bioequivalence of LC, we measured the progestogenic effect of rat serum sampled at defined time points after oral doses of LC (2 g/2 ml), MPA (10 mg/2 ml), and vehicle only (2 ml 60% ethanol). Serum samples were extracted and progesterone effect measured as in Example 12.

Series [3] concerns male Sprague-Dawley rats. Particulars: subcutaneous; MPA 10 mg. The text has this: Each data point is the Mean±SEM of samples obtained from 6 different rats. Bars indicate progestogenic activity of original MPA and L.C. extract in-vitro. Progestogenic activity is expressed as fold increase compared to cells exposed to vehicle only.
The test system of series [4] is subjects with transient ischemic attack. The following applies: cited from earlier work.
Series [5] deals with patients with acute cerebral infarction. Particulars: cited from earlier work.

In the case of `CC(=O)[C@H]1CC[C@H]2[C@@H]3CCC4=CC(=O)CC[C@]4(C)[C@H]3CC[C@]12C` [progesterone], the “increase in hormonal activity over controls exposed to vehicle only at peak activity” value in series [1] turned out to be 300 fold.

In the case of `CC(=O)O[C@]1(C(C)=O)CC[C@H]2[C@@H]3C[C@H](C)C4=CC(=O)CC[C@]4(C)[C@H]3CC[C@@]21C` [MPA, 6α-methyl-17α-hydroxy-progesterone acetate], the “maintenance of peak / high levels of progestogenic effect” value in the series on male Sprague-Dawley rats [2] (male, Sprague-Dawley, rat, in vivo, po) is “maintained throughout the 24 hour of sampling”. For the same molecule, the “peak progesterone activity in words” value in the series with male Sprague-Dawley rats [2] (oral) was “comparable to that observed with saturating doses of progesterone in-vitro”. In addition, in the series on male Sprague-Dawley rats [2] (oral, MPA 10 mg/2 ml), the “serum activity versus baseline of rats administered vehicle only” value is “about 5 fold”. For the same molecule, the “peak progestogenic activity versus serum from rats administered vehicle only” value in the series with male Sprague-Dawley rats [3] is reported as “about 5 fold”.

As for `CC(=O)O[C@]1(C(C)=O)CC[C@H]2[C@@H]3C=C(C)C4=CC(=O)CC[C@]4(C)[C@H]3CC[C@@]21C` [megesterol acetate], the “increase in hormonal activity over controls exposed to vehicle only at peak activity” value in series [1] worked out at 300 fold.

Take `CC(=O)Oc1ccccc1C(=O)O` [aspirin]: the total effective rate in series [4] is 61.7%.

Take dextran 40: the “total therapeutic efficacy rate” value in series [5] is recorded as 62.8%.
